The compounds below were run on NO production in BV-2 cells [NO 생성; BV-2 세포] (assay: Nitric oxide (NO) quantification (nitrite, Griess reaction) in LPS-activated BV-2 cells). Settings: 20 μM, LPS 0.2 ㎍/mL, 24 h co-treatment, nitrite by Griess at 540 nm, 1440 min.
Format: cell-based

With `CSc1nc(NC(C)c2ccccc2)c2cnn(Cc3ccccc3)c2n1` (stereo not drawn) [화합물 16k, 1-벤질-6-(메틸티오)-N-(1-페닐에틸)-1H-피라졸로[3,4-d]피리미딘-4-아민] the “NO (% of LPS)” value was 31±0.5 % of LPS.

Same assay, conditions: Mus musculus, BV-2, 24 h, 20 μM, LPS 0.2 ㎍/mL, 24 h co-treatment, nitrite by Griess at 540 nm

Point of comparison: `CSc1nc(NC2CCCCC2)c2cnn(-c3ccccc3)c2n1` [화합물 15q, 1-페닐-4-사이클로헥실아미노-6-(메틸티오)피라졸로[3,4-d]피리미딘], activity at 20 µM 54 ± 1%. Against it:
- CSc1nc(NC(C)(C)CO)c2cnn(CCNC(=O)OC(C)(C)C)c2n1 [화합물 14h, 2-(4-(1-하이드록시-2-메틸프로판-2-일아미노)-6-(메틸티오)-1H-피라졸로[3,4-d]피리미딘-1-일)에틸카바메이트] — higher, 78.9 ± 1.6%
- CCCCNc1nc(SC)nc2c1cnn2CCNC(=O)OC(C)(C)C [화합물 14i, 2-(4-(뷰틸아미노)-6-(메틸티오)-1H-피라졸로[3,4-d]피리미딘-1-일)에틸카바메이트] — within error, 54.2 ± 2.3%
- COc1ccc(CNc2nc(SC)nc3c2cnn3CCNC(=O)OC(C)(C)C)cc1 [화합물 14j, 2-(4-(4-메톡시벤질아미노)-6-(메틸티오)-1H-피라졸로[3,4-d]피리미딘-1-일)에틸카바메이트] — lower, 25.8 ± 3%
- CSc1nc(NCc2ccccn2)c2cnn(CCNC(=O)OC(C)(C)C)c2n1 [화합물 14k, 2-(4-((피리딘-2-일)메틸아미노)-6-(메틸티오)-1H-피라졸로[3,4-d]피리미딘-1-일)에틸카바메이트] — higher, 61 ± 0.8%
- CSc1nc(NCc2ccccc2Cl)c2cnn(CCNC(=O)OC(C)(C)C)c2n1 [화합물 14l, 2-(4-(2-클로로벤질아미노)-6-(메틸티오)-1H-피라졸로[3,4-d]피리미딘-1-일)에틸카바메이트] — lower, 24.2 ± 1.7%
- CSc1nc(NCc2ccccc2)c2cnn(-c3ccccc3)c2n1 [화합물 15a, 1-페닐-4-벤질아미노-6-(메틸티오)피라졸로[3,4-d]피리미딘] — within error, 53 ± 12%
- CSc1nc(NCCc2ccccc2)c2cnn(-c3ccccc3)c2n1 [화합물 15b, 1-페닐-4-(2-페닐에틸)아미노-6-(메틸티오)피라졸로[3,4-d]피리미딘] — higher, 72 ± 8%
- COc1ccc(CNc2nc(SC)nc3c2cnn3-c2ccccc2)cc1 [화합물 15c, 1-페닐-4-(4-메톡시벤질)아미노-6-(메틸티오)피라졸로[3,4-d]피리미딘] — within error, 61 ± 6%
- CSc1nc(NCCO)c2cnn(-c3ccccc3)c2n1 [화합물 15d, 1-페닐-4-(1-하이드록식에틸)아미노-6-(메틸티오)피라졸로[3,4-d]피리미딘] — higher, 68 ± 7%
- CSc1nc(NCc2ccc(F)cc2)c2cnn(-c3ccccc3)c2n1 [화합물 15e, 1-페닐-4-(4-플루오로벤질)아미노-6-(메틸티오)피라졸로[3,4-d]피리미딘] — within error, 46 ± 10%
- C=CCNc1nc(SC)nc2c1cnn2-c1ccccc1 [화합물 15f, 1-페닐-4-알릴아미노-6-(메틸티오)피라졸로[3,4-d]피리미딘] — within error, 60 ± 17%
- CSc1nc(NCCN2CCCCC2)c2cnn(-c3ccccc3)c2n1 [화합물 15g, 1-페닐-4-[2-(피페리딘-1-일)]에틸아미노-6-(메틸티오)피라졸로[3,4-d]피리미딘] — higher, 64 ± 7%
- CSc1nc(N[C@H](C)c2ccccc2)c2cnn(-c3ccccc3)c2n1 [화합물 15h, (R)-1-페닐-4-(1-페닐에틸)아미노-6-(메틸티오)피라졸로[3,4-d]피리미딘] — lower, 29 ± 4.6%
- CSc1nc(N(CCO)CCO)c2cnn(-c3ccccc3)c2n1 [화합물 15i, 1-페닐-4-비스(1-하이드록시에틸)아미노-6-(메틸티오)피라졸로[3,4-d]피리미딘] — higher, 90 ± 3%
- CSc1nc(NCc2ccccn2)c2cnn(-c3ccccc3)c2n1 [화합물 15j, 1-페닐-4-[(피리딘-2-일)메틸]아미노-6-(메틸티오)피라졸로[3,4-d]피리미딘] — lower, 30 ± 14%
- CSc1nc(NC(C)(C)CO)c2cnn(-c3ccccc3)c2n1 [화합물 15k, 1-페닐-4-[(1-하이드록시-2,2-다이메틸)에틸]아미노-6-(메틸티오)피라졸로[3,4-d]피리미딘] — higher, 70 ± 3%
- COc1cccc(CNc2nc(SC)nc3c2cnn3-c2ccccc2)c1 [화합물 15l, 1-페닐-4-(3-메톡시벤질)아미노-6-(메틸티오)피라졸로[3,4-d]피리미딘] — within error, 50 ± 9%
- CSc1nc(N2CCCCC2)c2cnn(-c3ccccc3)c2n1 [화합물 15m, 1-페닐-4-피페리디노-6-(메틸티오)피라졸로[3,4-d]피리미딘] — higher, 92 ± 4%
- CSc1nc(NCc2ccc(Cl)cc2)c2cnn(-c3ccccc3)c2n1 [화합물 15n, 1-페닐-4-(4-클로로벤질)아미노-6-(메틸티오)피라졸로[3,4-d]피리미딘] — higher, 63 ± 6%
- CSc1nc(NCc2ccccc2C)c2cnn(-c3ccccc3)c2n1 [화합물 15o, 1-페닐-4-(2-메틸벤질)아미노-6-(메틸티오)피라졸로[3,4-d]피리미딘] — higher, 57 ± 1%
- CSc1nc(NCc2ccc(C)cc2)c2cnn(-c3ccccc3)c2n1 [화합물 15p, 1-페닐-4-(4-메틸벤질)아미노-6-(메틸티오)피라졸로[3,4-d]피리미딘] — higher, 71 ± 5%
- CSc1nc(N[C@H](C)C2CCCCC2)c2cnn(-c3ccccc3)c2n1 [화합물 15r, (R)-1-페닐-4-(1-사이클로헥실에틸)아미노-6-(메틸티오)피라졸로[3,4-d]피리미딘] — lower, 41 ± 1%
- COc1nc(SC)nc2c1cnn2-c1ccccc1 [화합물 15s, 1-페닐-4-메톡시-6-(메틸티오)피라졸로[3,4-d]피리미딘] — higher, 93 ± 2%
- CCCCNc1nc(SC)nc2c1cnn2-c1ccccc1 [화합물 15t, 1-페닐-4-n-뷰틸아미노-6-(메틸티오)피라졸로[3,4-d]피리미딘] — within error, 48 ± 8%
- CSc1nc(N2CCN(C)CC2)c2cnn(-c3ccccc3)c2n1 [화합물 15u, 1-페닐-4-(4-메틸)피페라지노-6-(메틸티오)피라졸로[3,4-d]피리미딘] — higher, 64%
- COc1ccccc1CNc1nc(SC)nc2c1cnn2-c1ccccc1 [화합물 15v, 1-페닐-4-(2-메톡시벤질)아미노-6-(메틸티오)피라졸로[3,4-d]피리미딘] — lower, 41 ± 2%
- CCN(CC)c1nc(SC)nc2c1cnn2-c1ccccc1 [화합물 15w, 1-페닐-4-다이에틸아미노-6-(메틸티오)피라졸로[3,4-d]피리미딘] — higher, 79 ± 3%
- CSc1nc(Sc2ccc(C)cc2)c2cnn(-c3ccccc3)c2n1 [화합물 15y, 4-(p-톨릴티오)-6-(메틸티오)-1-페닐-1H-피라졸로[3,4-d]피리미딘] — higher, 85 ± 2.3%
- CSc1nc(NC(c2ccccc2)c2ccc(Cl)cc2)c2cnn(-c3ccccc3)c2n1 (stereo not drawn) [화합물 15z, N-((4-클로로페닐)(페닐)메틸)-6-(메틸티오)-1-페닐-1H-피라졸로[3,4-d]피리미딘-4-아민] — lower, 46 ± 0.6%
- CSc1nc(NC(C)C2CCCCC2)c2cnn(-c3ccccc3)c2n1 (stereo not drawn) [화합물 15za, N-(1-사이클로헥실에틸)-6-(메틸티오)-1-페닐-1H-피라졸로[3,4-d]피리미딘-4-아민] — lower, 36 ± 0.7%
- CSc1nc(NC(C)c2ccc(C)cc2)c2cnn(-c3ccccc3)c2n1 (stereo not drawn) [화합물 15zb, 6-(메틸티오)-1-페닐-N-(1-p-톨릴에틸)-1H-피라졸로[3,4-d]피리미딘-4-아민] — lower, 51 ± 0.1%
- COc1ccc([C@H](C)Nc2nc(SC)nc3c2cnn3-c2ccccc2)cc1 [화합물 15zc, N-((S)-1-(4-메톡시페닐)에틸)-6-(메틸티오))-1-페닐-1H-피라졸로[3,4-d]피리미딘-4-아민] — lower, 42 ± 0.9%
- CSc1nc(NCc2ccccc2)c2cnn(Cc3ccccc3)c2n1 [화합물 16a, 1-벤질-4-벤질아미노-6-(메틸티오)피라졸로[3,4-d]피리미딘] — lower, 35 ± 0.5%
- CSc1nc(NCc2ccc(F)cc2)c2cnn(Cc3ccccc3)c2n1 [화합물 16c, 1-벤질-4-(4-플루오로벤질)아미노-6-(메틸티오)피라졸로[3,4-d]피리미딘] — lower, 32.3 ± 3%
- CSc1nc(NCCc2ccccc2)c2cnn(Cc3ccccc3)c2n1 [화합물 16d, 1-벤질-4-(2-페닐에틸)아미노-6-(메틸티오)피라졸로[3,4-d]피리미딘] — the same, 54 ± 1%
- CSc1nc(N[C@H](C)c2ccccc2)c2cnn(Cc3ccccc3)c2n1 [화합물 16e, (R)-1-벤질-4-(1-페닐에틸)아미노-6-(메틸티오)피라졸로[3,4-d]피리미딘] — lower, 36 ± 4%
- CSc1nc(NCc2ccccc2C)c2cnn(Cc3ccccc3)c2n1 [화합물 16f, 1-벤질-4-(2-메틸벤질)아미노-6-(메틸티오)피라졸로[3,4-d]피리미딘] — lower, 35 ± 6%
- COc1ccc(CNc2nc(SC)nc3c2cnn3Cc2ccccc2)cc1 [화합물 16g, 1-벤질-4-(4-메톡시벤질)아미노-6-(메틸티오)피라졸로[3,4-d]피리미딘] — lower, 37 ± 6%
- C=CCNc1nc(SC)nc2c1cnn2Cc1ccccc1 [화합물 16h, 1-벤질-4-알릴아미노-6-(메틸티오)피라졸로[3,4-d]피리미딘] — higher, 66 ± 9%
- CSc1nc(N(CCO)CCO)c2cnn(Cc3ccccc3)c2n1 [화합물 16i, 1-벤질-4-비스(1-하이드록시에틸)아미노-6-(메틸티오)피라졸로[3,4-d]피리미딘] — higher, 79 ± 3%
- CSc1nc(NC(C)(C)CO)c2cnn(Cc3ccccc3)c2n1 [화합물 16j, 1-벤질-4-[(1-하이드록시-2,2-다이메틸)에틸]아미노-6-(메틸티오)피라졸로[3,4-d]피리미딘] — within error, 48 ± 8%
- CCSc1nc(SC)nc2c1cnn2Cc1ccccc1 [화합물 16l, 1-벤질-4-(에틸티오)-6-(메틸티오)-1H-피라졸로[3,4-d]피리미딘] — within error, 48 ± 5.1%
- CCCCSc1nc(SC)nc2c1cnn2Cc1ccccc1 [화합물 16m, 1-벤질-4-(뷰틸티오)-6-(메틸티오)-1H-피라졸로[3,4-d]피리미딘] — higher, 58 ± 1.9%
- CSc1nc(SCC(C)C)c2cnn(Cc3ccccc3)c2n1 [화합물 16n, 1-벤질-4-(이소부틸티오)-6-(메틸티오)-1H-피라졸로[3,4-d]피리미딘] — within error, 56 ± 4.5%
- CSc1nc(SCCCCl)c2cnn(Cc3ccccc3)c2n1 [화합물 16o, 4-(3-클로로프로필티오)-1-벤질-6-(메틸티오)-1H-피라졸로[3,4-d]피리미딘] — lower, 43 ± 4.6%
- CSc1nc(Sc2ccc(C)cc2)c2cnn(Cc3ccccc3)c2n1 [화합물 16p, 4-(p-톨릴티오)-1-벤질-6-(메틸티오)-1H-피라졸로[3,4-d]피리미딘] — lower, 34 ± 1.7%
- COc1ccc(Sc2nc(SC)nc3c2cnn3Cc2ccccc2)cc1 [화합물 16q, 4-(4-메톡시페닐티오)-1-벤질-6-(메틸티오)-1H-피라졸로[3,4-d]피리미딘] — lower, 40 ± 1.8%
- CSc1nc(Sc2ccc(Cl)cc2)c2cnn(Cc3ccccc3)c2n1 [화합물 16r, 4-(4-클로로페닐티오)-1-벤질-6-(메틸티오)-1H-피라졸로[3,4-d]피리미딘] — lower, 20 ± 1.9%
- CSc1nc(SCc2ccccc2Cl)c2cnn(Cc3ccccc3)c2n1 [화합물 16s, 4-(2-클로로벤질티오)-1-벤질-6-(메틸티오)-1H-피라졸로[3,4-d]피리미딘] — higher, 66 ± 2.6%
- CSc1nc(Sc2c(Cl)cccc2Cl)c2cnn(Cc3ccccc3)c2n1 [화합물 16t, 4-(2,6-다이클로로페닐티오)-1-벤질-6-(메틸티오)-1H-피라졸로[3,4-d]피리미딘] — lower, 43 ± 1.2%
- CSc1nc(Sc2ccc(F)cc2)c2cnn(Cc3ccccc3)c2n1 [화합물 16u, 4-(4-플루오로페닐티오)-1-벤질-6-(메틸티오)-1H-피라졸로[3,4-d]피리미딘] — lower, 28 ± 1.8%
- CCCCCCCCSc1nc(SC)nc2c1cnn2Cc1ccccc1 [화합물 16v, 1-벤질-6-(메틸티오)-4-(옥틸티오)-1H-피라졸로[3,4-d]피리미딘] — higher, 95 ± 4%
- CSc1nc(NC(C)c2ccccc2)c2cnn(Cc3ccccc3)c2n1 (stereo not drawn) [화합물 16x, 1-벤질-6-(메틸티오)-N-(1-페닐에틸)-1H-피라졸로[3,4-d]피리미딘-4-아민] — lower, 34 ± 1.4%
- CSc1nc(NC(c2ccccc2)c2ccc(Cl)cc2)c2cnn(Cc3ccccc3)c2n1 (stereo not drawn) [화합물 16y, 1-벤질-N-((4-클로로페닐)(페닐)메틸)-6-(메틸티오)-1H-피라졸로[3,4-d]피리미딘-4-아민] — lower, 41 ± 0.9%
- CSc1nc(NC(C)C2CCCCC2)c2cnn(Cc3ccccc3)c2n1 (stereo not drawn) [화합물 16z, 1-벤질-N-(1-사이클로헥실에틸)-6-(메틸티오)-1H-피라졸로[3,4-d]피리미딘-4-아민] — lower, 26 ± 2.4%

Reference: patent publication KR20130112248A, “피라졸로피리미딘 유도체 화합물, 이를 포함하는 산화질소 생성 억제용 조성물 및 뇌신경 질환 예방 및 치료용 약학적 조성물” (한국과학기술연구원, priority 2012, dated 2013)
